# Measurements taken from ChEMBL document CHEMBL5030514, “Discovery of Anti-TNBC Agents Targeting PTP1B: Total Synthesis, Structure-Activity Relationship, In Vitro and In Vivo Investigations of Jamunones” (J Med Chem, 2021).
# Active and inactive are the calls of the source. The calls are words filed in the database; no cut-off is given here.
# What was measured:
# [1] = tested on: MDA-MB-231; assay: Induction of mitochondrial apoptosis in human MDA-MB-231 cells assessed as membrane blebbing by Hoechst 33258 staining based fluorescence microscopic assay; format: functional, cell-based
# [2] = tested on: MCF7; assay: Induction of mitochondrial apoptosis in human MCF-7 cells assessed as chromatin shrinkage by Hoechst 33258 staining based fluorescence microscopic assay; format: functional, cell-based
# [3] = tested on: MDA-MB-231; assay: Induction of mitochondrial apoptosis in human MDA-MB-231 cells assessed as accumulation of reactive oxygen species by flow cytometry; format: functional, cell-based
# [4] = tested on: MCF7; assay: Induction of mitochondrial apoptosis in human MCF-7 cells assessed as decrease in mitochondrial membrane potential levels at 5 uM measured after 24 hrs by flow cytometry; format: functional; parameters: scale not given: the % may be the effect or the level left
# [5] = tested on: MDA-MB-231; assay: Cell cycle arrest in human MDA-MB-231 cells assessed as downregulation of CDK6 expression by Western blot analysis; format: functional, cell-based
# [6] = tested on: MCF7; assay: Cell cycle arrest in human MCF-7 cells assessed as downregulation of cyclin D1 expression by Western blot analysis; format: functional, cell-based
# [7] = tested on: MCF7; assay: Cell cycle arrest in human MCF-7 cells assessed as downregulation of CDK6 expression by Western blot analysis; format: functional, cell-based
# [8] = tested on: MDA-MB-231; assay: Effect on Akt expression in human MDA-MB-231 cells by Western blot analysis; format: functional, cell-based
# [9] = Toxicity in human MDA-MB-231 cells xenografted in BALB/c nude mouse assessed as change in body weight at 15 to 30 mg/kg, ip administered once for every other day for 20 days relative to control; format: organism-based; settings: in vivo, 480 h, dose 15-30 mg/kg, time 20 day
# [10] = tested on: MCF7; assay: Induction of mitochondrial apoptosis in human MCF7 cells assessed as late apoptotic cells at 15 uM measured after 24 hrs by FITC -annexin V/PI double staining based flow cytometric analysis (reference value: 1.1%); format: functional
structure (smiles),measurement,setting,value
CCCC/C=C/CCCCCCCCCC1(O)CC(=O)c2c(O)c(C)c(O)c(C)c2O1 (stereo not given),Activity,[1],Active
same,Activity,[2],Active
same,Activity,[3],Active
same,Activity,[4],68.7%
same,Activity,[5],Dose-Dependent Effect
same,Activity,[6],Dose-Dependent Effect
same,Activity,[7],Dose-Dependent Effect
same,Activity,[8],inactive
same,Activity,[9],Not Active
same,Activity,[10],8.9%
